Test results reported in US20020086278A1, “CHROMOGENIC MEDIA CONTAINING BLOOD OR HEMIN” (priority 1999, published 2002).
Read-outs that look alike come from different tables or passages of the source.

Tests used:
Type in all cases: cell-based
Candida albicans (caal) = assay: Example 3: colony color on chromogenic TSA II with 5% sheep blood (chromogen in medium); conditions: for Colony Color: caal 10231, 24 h
E. faecium (enfu) = assay: as above; conditions: for Colony Color: enfu 49032, 21 h
[1] = test system: Serratia marcescens (sema); assay: as above; conditions: for Colony Color: sema 13880, CO2, 21 h
[2] = test system: Staphylococcus Coag Neg (step); assay: as above; conditions: for Colony Color: 21 h
55 strains = assay: Example 3: color, hemolytic activity and growth over all 55 strains
Text: Steers, E. et al., Antibiot.

[3] = test system: Aeromonas hydrophilia (aehy); assay: Example 3: colony color on chromogenic TSA II with 5% sheep blood (chromogen in medium); conditions: for Colony Color: CO2, 21 h
[4] = test system: E. coli (non-O157) (esco)
Salmonella spp. (sasp) = conditions: for Colony Color: CO2, 21 h
S. pneumoniae (stpn) = assay: Example 3: colony color on chromogenic TSA II with 5% sheep blood (chromogen in medium)
[5] = test system: Pseudomonas aeruginosa (psae); assay: as above; conditions: for Colony Color: CO2, 21 h
milu 9341 = assay: as above; conditions: CO2, 21 h
S. milleri (stmi) = assay: as above; conditions: for Colony Color: stmi 6249, 21 h
S pyogenes (stpy) = assay: as above; conditions: for Colony Color: 21 h
[6] = test system: Citrobacter freundii (cifr); assay: as above
cakr 34135 = assay: as above; conditions: CO2, 21 h
[7] = test system: Streptococcus agalactiae (stag); assay: as above
[8] = test system: Entercoccus faecalis (enfa); assay: as above
[9] = test system: Klebsiella pneumoniae (klpn); assay: as above
[10] = test system: Staphylococcus aureus (stau); assay: as above
[11] = test system: Branhamella catarrhalis (brca); assay: as above; conditions: for Colony Color: CO2, 21 h
[12] = chromogenic TSA II with 5% Sheep Blood, 0.1 g/l, 2 strains tested
[13] = chromogenic TSA II with 5% Sheep Blood, 0.1 g/l, 1 strain tested
[14] = chromogenic TSA II with 5% Sheep Blood, 0.1 g/l, 5 strains tested
[15] = chromogenic TSA II with 5% Sheep Blood, 0.1 g/l, 3 strains tested
[16] = chromogenic TSA II with 5% Sheep Blood, 0.1 g/l, 6 strains tested

O=S(=O)([O-])Oc1c[nH]c2ccc(Br)c(Cl)c12.[K+] [X-Sulf, 5-Br-4-Cl-3-indolyl-sulfate (Potassium salt)]
Colony Color (Candida albicans (caal); CO2): 0
Colony Color (Candida albicans (caal); air): 0
Colony Color (Summary) (Candida albicans (caal); [12]): 0
Colony Color (Summary) (E. faecium (enfu); [13]): 0
Colony Color (E. faecium (enfu); CO2): 0
Colony Color (E. faecium (enfu); air): 0
Colony Color (Summary) [1, 13]: 0
Colony Color [1]: 0
Colony Color (Summary) [2, 14]: 0
Colony Color ([2]; step 12228, CO2): 0
Colony Color ([2]; step 12228, air): 0
Colony Color ([2]; step cdc1, CO2): 0
Colony Color ([2]; step cdc1, air): 0
Colony Color ([2]; step cdc2, CO2): 0
Colony Color ([2]; step cdc2, air): 0
Colony Color ([2]; step cdc3, CO2): 0
Colony Color ([2]; step cdc3, air): 0
Colony Color ([2]; step cdc4, CO2): 0
Colony Color ([2]; step cdc4, air): 0
Activity (color) for most organisms (55 strains; chromogenic TSA II): inactive
Colony Color ([3]; aehy 7965): 0
Colony Color ([3]; aehy 7966): 0
Colony Color ([3]; aehy 49847): 0
Colony Color (Summary) [3, 15]: 0
Colony Color (Summary) [4, 15]: 0
Colony Color ([4]; esco 11775, CO2, 21 h): 0
Colony Color ([4]; esco 25922, CO2, 24 h): 0
Colony Color ([4]; esco 25922, air, 24 h): 0
Colony Color ([4]; esco 33605, CO2, 21 h): 0
Colony Color (Summary) (Salmonella spp. (sasp); [12]): 0
Colony Color (Salmonella spp. (sasp); saty 19430): 0
Colony Color (Salmonella spp. (sasp); satym 14028): 0
Colony Color (Summary) (S. pneumoniae (stpn); [16]): 0
Colony Color (S. pneumoniae (stpn); stpn 1259, CO2, 21 h): 0
Colony Color (S. pneumoniae (stpn); stpn 1260, CO2, 21 h): 0
Colony Color (S. pneumoniae (stpn); stpn 1628, CO2, 21 h): 0
Colony Color (S. pneumoniae (stpn); stpn 6303, CO2, 24 h): 0
Colony Color (S. pneumoniae (stpn); stpn 6303, air, 24 h): 0
Colony Color (S. pneumoniae (stpn); stpn 6305, CO2, 24 h): 0
Colony Color (S. pneumoniae (stpn); stpn 6305, air, 24 h): 0
Colony Color (Summary) [5, 15]: 0
Colony Color ([5]; psae 9027): 0
Colony Color ([5]; psae 15442): 0
Colony Color ([5]; psae 33607): 0
Colony Color (milu 9341): 0
Colony Color (Summary) (S. milleri (stmi); [12]): 0
Colony Color (S. milleri (stmi); air): 0
Colony Color (Summary) (S pyogenes (stpy); [16]): 0
Colony Color (S pyogenes (stpy); stpy 1027, CO2): 0
Colony Color (S pyogenes (stpy); stpy 1028, CO2): 0
Colony Color (S pyogenes (stpy); stpy 1029, CO2): 0
Colony Color (S pyogenes (stpy); stpy 1030, CO2): 0
Colony Color (S pyogenes (stpy); stpy 19615, CO2): 0
Colony Color (S pyogenes (stpy); stpy 19615, air): 0
Colony Color (S pyogenes (stpy); stpy 49117, CO2): 0
Colony Color (S pyogenes (stpy); stpy 49117, air): 0
Colony Color (S pyogenes (stpy); stpy 51339, CO2): 0
Colony Color (S pyogenes (stpy); stpy 51339, air): 0
Colony Color ([6]; One strain of Citrobacter): grey blue
Colony Color (Summary) [6, 12]: +
Colony Color ([6]; cifr 8454, CO2, 21 h): 0
Colony Color ([6]; cifr 33128, CO2, 21 h): gb
Colony Color (cakr 34135): 0
Colony Color (Summary) [7, 15]: 0
Colony Color ([7]; stag 4768, CO2, 21 h): 0
Colony Color ([7]; stag 4768, air, 21 h): 0
Colony Color ([7]; stag 12386, CO2, 21 h): 0
Colony Color ([7]; stag 12386, CO2, 24 h): 0
Colony Color ([7]; stag 12386, air, 24 h): 0
Colony Color (Summary) [8, 16]: 0
Colony Color ([8]; enfa 597, CO2, 21 h): 0
Colony Color ([8]; enfa 597, air, 21 h): 0
Colony Color ([8]; enfa 10741, CO2, 21 h): 0
Colony Color ([8]; enfa 10741, air, 21 h): 0
Colony Color ([8]; enfa 12953, CO2, 21 h): 0
Colony Color ([8]; enfa 12953, air, 21 h): 0
Colony Color ([8]; enfa 14506, CO2, 21 h): 0
Colony Color ([8]; enfa 14506, air, 21 h): 0
Colony Color ([8]; enfa 29212, CO2, 21 h): 0
Colony Color ([8]; enfa 29212, CO2, 24 h): 0
Colony Color ([8]; enfa 29212, air, 21 h): 0
Colony Color ([8]; enfa 29212, air, 24 h): 0
Colony Color (Summary) [9, 15]: 0
Colony Color ([9]; klpn 13883, CO2, 21 h): 0
Colony Color ([9]; klpn 33495, CO2, 24 h): 0
Colony Color ([9]; klpn 33495, air, 24 h): 0
Colony Color ([9]; klpn 33606, CO2, 21 h): 0
Colony Color (Summary) [10, 14]: 0
Colony Color ([10]; stau 1006, CO2, 21 h): 0
Colony Color ([10]; stau 1007, CO2, 21 h): 0
Colony Color ([10]; stau 1008, CO2, 21 h): 0
Colony Color ([10]; stau 1009, CO2, 21 h): 0
Colony Color ([10]; stau 25923, CO2, 24 h): 0
Colony Color ([10]; stau 25923, air, 24 h): 0
Colony Color ([11]; brca 25238): 0
Colony Color ([11]; brca 25240): 0
Colony Color (Summary) [11, 12]: 0

CC(C)S[C@@H]1O[C@H](CO)[C@H](O)[C@H](O)[C@H]1O [IPTG, Isopropyl-β-D-thiogalactopyranoside]
Effect on reactivity with X-gal (55 strains; some strains): reduce the reactivity

NC1CCCCC1.O=C(O)[C@H]1O[C@@H](Oc2c[nH]c3cc(Cl)ccc23)[C@H](O)[C@@H](O)[C@@H]1O [Sal-Glucuro, 6-Cl-3-indolyl-β-D-glucuronide (CHA salt)]
Colony Color (Candida albicans (caal); CO2): 0
Colony Color (Candida albicans (caal); air): 0
Colony Color (E. faecium (enfu); CO2): 0
Colony Color (E. faecium (enfu); air): 0
Colony Color [1]: 0
Colony Color ([2]; step 12228, CO2): 0
Colony Color ([2]; step 12228, air): 0
Colony Color ([2]; step cdc1, CO2): 0
Colony Color ([2]; step cdc1, air): 0
Colony Color ([2]; step cdc2, CO2): 0
Colony Color ([2]; step cdc2, air): 0
Colony Color ([2]; step cdc3, CO2): 0
Colony Color ([2]; step cdc3, air): 0
Colony Color ([2]; step cdc4, CO2): 0
Colony Color ([2]; step cdc4, air): 0
Colony Color ([3]; aehy 7965): 0
Colony Color ([3]; aehy 7966): 0
Colony Color ([3]; aehy 49847): 0
Colony Color ([4]; esco 11775, CO2, 21 h): 0
Colony Color ([4]; esco 25922, CO2, 24 h): 0
Colony Color ([4]; esco 25922, air, 24 h): 0
Colony Color ([4]; esco 33605, CO2, 21 h): 0
Colony Color (Salmonella spp. (sasp); saty 19430): 0
Colony Color (Salmonella spp. (sasp); satym 14028): 0
Colony Color (S. pneumoniae (stpn); stpn 1259, CO2, 21 h): 0
Colony Color (S. pneumoniae (stpn); stpn 1260, CO2, 21 h): 0
Colony Color (S. pneumoniae (stpn); stpn 1628, CO2, 21 h): 0
Colony Color (S. pneumoniae (stpn); stpn 6303, CO2, 24 h): 0
Colony Color (S. pneumoniae (stpn); stpn 6303, air, 24 h): 0
Colony Color (S. pneumoniae (stpn); stpn 6305, CO2, 24 h): 0
Colony Color (S. pneumoniae (stpn); stpn 6305, air, 24 h): 0
Colony Color ([5]; psae 9027): 0
Colony Color ([5]; psae 15442): 0
Colony Color ([5]; psae 33607): 0
Colony Color (milu 9341): 0
Colony Color (S. milleri (stmi); CO2): 0
Colony Color (S. milleri (stmi); air): 0
Colony Color (S pyogenes (stpy); stpy 1027, CO2): 0
Colony Color (S pyogenes (stpy); stpy 1028, CO2): 0
Colony Color (S pyogenes (stpy); stpy 1029, CO2): 0
Colony Color (S pyogenes (stpy); stpy 1030, CO2): 0
Colony Color (S pyogenes (stpy); stpy 19615, CO2): 0
Colony Color (S pyogenes (stpy); stpy 19615, air): 0
Colony Color (S pyogenes (stpy); stpy 49117, CO2): 0
Colony Color (S pyogenes (stpy); stpy 49117, air): 0
Colony Color (S pyogenes (stpy); stpy 51339, CO2): 0
Colony Color (S pyogenes (stpy); stpy 51339, air): 0
Colony Color ([6]; cifr 8454, CO2, 21 h): 0
Colony Color ([6]; cifr 33128, CO2, 21 h): 0
Colony Color (cakr 34135): 0
Colony Color ([7]; stag 4768, CO2, 21 h): 0
Colony Color ([7]; stag 4768, air, 21 h): 0
Colony Color ([7]; stag 12386, CO2, 21 h): 0
Colony Color ([7]; stag 12386, CO2, 24 h): gp
Colony Color ([7]; stag 12386, air, 24 h): gp
Colony Color ([8]; enfa 597, CO2, 21 h): 0
Colony Color ([8]; enfa 597, air, 21 h): 0
Colony Color ([8]; enfa 10741, CO2, 21 h): 0
Colony Color ([8]; enfa 10741, air, 21 h): 0
Colony Color ([8]; enfa 12953, CO2, 21 h): 0
Colony Color ([8]; enfa 12953, air, 21 h): 0
Colony Color ([8]; enfa 14506, CO2, 21 h): 0
Colony Color ([8]; enfa 14506, air, 21 h): 0
Colony Color ([8]; enfa 29212, CO2, 21 h): 0
Colony Color ([8]; enfa 29212, CO2, 24 h): 0
Colony Color ([8]; enfa 29212, air, 21 h): 0
Colony Color ([8]; enfa 29212, air, 24 h): 0
Colony Color ([9]; klpn 13883, CO2, 21 h): 0
Colony Color ([9]; klpn 33495, CO2, 24 h): 0
Colony Color ([9]; klpn 33495, air, 24 h): 0
Colony Color ([9]; klpn 33606, CO2, 21 h): 0
Colony Color ([10]; stau 1006, CO2, 21 h): 0
Colony Color ([10]; stau 1007, CO2, 21 h): 0
Colony Color ([10]; stau 1008, CO2, 21 h): 0
Colony Color ([10]; stau 1009, CO2, 21 h): 0
Colony Color ([10]; stau 25923, CO2, 24 h): 0
Colony Color ([10]; stau 25923, air, 24 h): 0
Colony Color ([11]; brca 25238): 0
Colony Color ([11]; brca 25240): 0
